Source: patent US10376476B2, “Panicein compounds, compositions and uses thereof” (CENTRE NATIONAL DE LA RECHERCHE SCIENTIFIQUE, priority 2014, dated 2019)

Molecular target: T1, mutant Patched G509VD513Y (hPtcVXXXY) expressed in yeasts (Homo sapiens, UniProt Q13635, D513Y/G509V)
T1 construct: MAP; expressed in transfected cells; host or cells: Saccharomyces cerevisiae K699
T1 sequence (Q13635 1-1447 G509V/D513Y): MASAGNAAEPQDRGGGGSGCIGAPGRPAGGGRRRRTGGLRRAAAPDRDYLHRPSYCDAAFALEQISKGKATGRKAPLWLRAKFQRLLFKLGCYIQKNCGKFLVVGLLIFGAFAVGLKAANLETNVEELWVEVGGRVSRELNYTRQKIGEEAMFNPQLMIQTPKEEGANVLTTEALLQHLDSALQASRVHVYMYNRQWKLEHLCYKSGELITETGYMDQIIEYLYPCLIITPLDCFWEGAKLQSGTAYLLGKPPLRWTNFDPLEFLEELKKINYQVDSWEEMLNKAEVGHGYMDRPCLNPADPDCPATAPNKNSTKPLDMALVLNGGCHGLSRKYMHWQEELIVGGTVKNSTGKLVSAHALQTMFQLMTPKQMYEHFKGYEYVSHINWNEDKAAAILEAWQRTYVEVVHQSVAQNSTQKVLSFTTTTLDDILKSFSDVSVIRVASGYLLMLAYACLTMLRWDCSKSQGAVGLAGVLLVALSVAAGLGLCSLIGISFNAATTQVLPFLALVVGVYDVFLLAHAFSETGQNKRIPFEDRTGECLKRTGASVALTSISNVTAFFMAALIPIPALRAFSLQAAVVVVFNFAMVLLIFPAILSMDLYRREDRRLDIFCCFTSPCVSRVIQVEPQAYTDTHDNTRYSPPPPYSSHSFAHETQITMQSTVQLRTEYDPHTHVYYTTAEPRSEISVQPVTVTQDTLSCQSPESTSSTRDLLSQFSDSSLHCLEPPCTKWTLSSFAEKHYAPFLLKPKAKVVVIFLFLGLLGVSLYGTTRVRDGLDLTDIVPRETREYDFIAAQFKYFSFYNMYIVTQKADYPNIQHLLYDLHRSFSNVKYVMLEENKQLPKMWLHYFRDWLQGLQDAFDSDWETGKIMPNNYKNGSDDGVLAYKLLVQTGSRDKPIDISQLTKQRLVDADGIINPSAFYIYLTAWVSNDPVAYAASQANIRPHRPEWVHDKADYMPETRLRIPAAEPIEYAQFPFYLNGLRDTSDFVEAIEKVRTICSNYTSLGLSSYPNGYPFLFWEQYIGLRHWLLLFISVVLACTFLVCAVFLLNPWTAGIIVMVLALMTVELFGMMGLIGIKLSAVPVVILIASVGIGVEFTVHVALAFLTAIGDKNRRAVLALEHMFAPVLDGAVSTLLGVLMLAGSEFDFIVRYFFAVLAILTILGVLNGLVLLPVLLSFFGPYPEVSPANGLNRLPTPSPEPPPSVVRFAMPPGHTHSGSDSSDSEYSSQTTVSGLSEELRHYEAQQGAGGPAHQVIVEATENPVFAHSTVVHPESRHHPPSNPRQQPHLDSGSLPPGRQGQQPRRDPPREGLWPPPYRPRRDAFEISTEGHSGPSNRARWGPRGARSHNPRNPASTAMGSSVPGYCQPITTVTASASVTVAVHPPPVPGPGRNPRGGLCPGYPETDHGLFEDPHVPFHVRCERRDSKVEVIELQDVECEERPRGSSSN
Experiment: Doxorubicin efflux from yeasts (intracellular dxr fluorescence)
Format: cell-based
Conditions: hPtc-YXXXG-yeasts (mutant Patched), 10 μM paniceins, 10 min, 5 mM 2-deoxy-D-glucose
Protocol: A. Compound P5 inhibits doxorubicin efflux from melanoma cells MeWo and A375. Cells were grown on cover-slips, incubated for 2 hour at 37° C. with 10 μM doxorubicin and quickly rinsed with phosphate buffer (pH 7.4). One cover-slip of each cell line was immediately fixed for doxorubicin charge control. The other cover-slips were incubated with buffer supplemented with DMSO or 10 μM of compound P5 30 min under gentle shaking and immediately fixed. Dxr intracellular fluorescence was visualized by epifluorescence and analyzed using Image J software on more than 30 cells of 3 different fields for each condition. The results were analyzed using the Student t test in which significance is attained at P<0.05 (**: P<0.005, ***: P<0.0005). B. Paniceins inhibit doxorubicin efflux from Patched-expressing yeasts. Yeasts expressing wild-type Patched (hPtc, in black), mutant Patched G509VD513Y (hPtcVXXXY, in grey), and control yeasts (in white) were incubated in buffer supplemented with 5 mM of 2-deoxy-D-glucose and 10 μM dxr for 2 hours at 4° C. After centrifugation and supernatant removing, one sample was immediately fixed for charge control and the other samples were resuspended in buffer containing 5 mM of 2-deoxy-D-glucose supplemented with DMSO or 10 μM of paniceins 10 minutes at 25° C. with gentle shaking. After centrifugation and supernatant removing, samples were fixed and deposited on coverslips for epifluorescence microscopy observation. Dxr intracellular fluorescence quantification was carried out using Image J software on more than 30 yeasts on 3 different fields for each condition. The results were analyzed using the Student t test in which significance is attained at P<0.05 (*).
On yeasts: Yeasts expressing Patched (hPtc), mutant Patched (hPtcG509VD513Y), or control yeasts were washed with cold water, resuspended at an OD600 of 10 in Hepes-NaOH buffer (pH 7.0) supplemented with 5 mM of 2-deoxy-D-glucose, and incubated with 10 μM doxorubicin for 2 hours at 4° C. in the cold room on a rotating wheel protected from light. Yeasts were centrifuged and the supernatant was removed. One sample was immediately fixed with 4% paraformaldehyde for doxorubicin loading control. The other samples were resuspended in Hepes-NaOH buffer (pH 7.0) containing 5 mM of 2-deoxy-D-glucose supplemented with DMSO or 10 μM of paniceins, and incubated 10 minutes at 20° C. with gentle shaking in a Benchmark Multi-therm shaker protected from light. Samples were centrifuged for 1 minute at 18,000 g, supernatants were removed and yeasts were fixed with 4% paraformaldehyde. 10 μL of each sample were deposited on a coverslip and observed by epifluorescence microscopy using an objective 63x and filters for Alexa 594. Quantification of doxorubicin intracellular fluorescence was carried out using Image J software on more than 30 yeasts on 3 different fields for each condition. The results were analyzed using the Student t test in which significance is attained at P <0.05.
In order to see if Paniceins inhibit dxr efflux through Patched inhibition, inventors compared dxr efflux on yeasts over-expressing human Patched and control yeasts. After loading with dxr, yeasts were centrifuged and fixed for dxr loading control (LC), or resuspended in buffer supplemented with DMSO or paniceins for efflux measurements. After 10 min a 20° C., yeasts were collected, fixed and deposited on cover-slips. 2-deoxy-D-glucose was added in buffer during loading and efflux in order to inhibit ATP-binding cassette (ABC) transporters. Dxr fluorescence intensity of at least 30 yeasts was measured for each experiment. FIGS. 6A and 12A show the mean fluorescence intensity of 3 independent experiments. […] This was confirmed using yeasts over-expressing Patched mutant VXXXY. […] Yeasts over-expressing hPtcVXXXY are less resistance to growth inhibition by dxr than yeasts over-expressing wild-type hPtc (Bidet et al., 2012).

| SMILES | Efflux (%) of dxr |
| --- | --- |
| C/C(=C\Cc1cc(O)ccc1O)CCc1c(C)c(O)c(O)c(C=O)c1C [P2, Panicein C] | 39% |
| C/C(=C\Cc1cc(O)ccc1O)CCc1c(C)cc(O)c(C=O)c1C [P3, Panicein B3] | 32% |
| Cc1cc(O)c(C=O)c(C)c1CCC1(C)C=Cc2cc(O)ccc2O1 (stereo not shown) [P4, Panicein B2] | 38% |
| COc1cc(C)c(CC/C(C)=C/Cc2cc(O)ccc2O)c(C)c1C [P5, Panicein A hydroquinone] | 42% |
